Reference: patent publication EP1247803A2, “Indolinone compounds suitable for modulation of protein kinases” (Sugen, Inc., priority 1996, dated 1998)

Key:
PDGF-R = PDGF-R (Homo sapiens, UniProt P09619); assay: PDGF-R ELISA; assay type: cell-based
Description: A PDGF-R ELISA is described in International Patent Publication No. WO 96/40116, published December 19, 1996 by Tang et al.

FLK-1 receptor = biological target: T1, FLK-1 receptor (Mus musculus, UniProt P35918); assay: FLK-1 ELISA (kinase activity of the FLK-1 receptor in FLK-1/NIH3T3 cells, VEGF stimulated); assay type: cell-based; design: concentration or dose not given beside the values
T1 construct: expressed in transfected cells; host or cells: NIH3T3 C7#3
T1 sequence (P35918 20-1345): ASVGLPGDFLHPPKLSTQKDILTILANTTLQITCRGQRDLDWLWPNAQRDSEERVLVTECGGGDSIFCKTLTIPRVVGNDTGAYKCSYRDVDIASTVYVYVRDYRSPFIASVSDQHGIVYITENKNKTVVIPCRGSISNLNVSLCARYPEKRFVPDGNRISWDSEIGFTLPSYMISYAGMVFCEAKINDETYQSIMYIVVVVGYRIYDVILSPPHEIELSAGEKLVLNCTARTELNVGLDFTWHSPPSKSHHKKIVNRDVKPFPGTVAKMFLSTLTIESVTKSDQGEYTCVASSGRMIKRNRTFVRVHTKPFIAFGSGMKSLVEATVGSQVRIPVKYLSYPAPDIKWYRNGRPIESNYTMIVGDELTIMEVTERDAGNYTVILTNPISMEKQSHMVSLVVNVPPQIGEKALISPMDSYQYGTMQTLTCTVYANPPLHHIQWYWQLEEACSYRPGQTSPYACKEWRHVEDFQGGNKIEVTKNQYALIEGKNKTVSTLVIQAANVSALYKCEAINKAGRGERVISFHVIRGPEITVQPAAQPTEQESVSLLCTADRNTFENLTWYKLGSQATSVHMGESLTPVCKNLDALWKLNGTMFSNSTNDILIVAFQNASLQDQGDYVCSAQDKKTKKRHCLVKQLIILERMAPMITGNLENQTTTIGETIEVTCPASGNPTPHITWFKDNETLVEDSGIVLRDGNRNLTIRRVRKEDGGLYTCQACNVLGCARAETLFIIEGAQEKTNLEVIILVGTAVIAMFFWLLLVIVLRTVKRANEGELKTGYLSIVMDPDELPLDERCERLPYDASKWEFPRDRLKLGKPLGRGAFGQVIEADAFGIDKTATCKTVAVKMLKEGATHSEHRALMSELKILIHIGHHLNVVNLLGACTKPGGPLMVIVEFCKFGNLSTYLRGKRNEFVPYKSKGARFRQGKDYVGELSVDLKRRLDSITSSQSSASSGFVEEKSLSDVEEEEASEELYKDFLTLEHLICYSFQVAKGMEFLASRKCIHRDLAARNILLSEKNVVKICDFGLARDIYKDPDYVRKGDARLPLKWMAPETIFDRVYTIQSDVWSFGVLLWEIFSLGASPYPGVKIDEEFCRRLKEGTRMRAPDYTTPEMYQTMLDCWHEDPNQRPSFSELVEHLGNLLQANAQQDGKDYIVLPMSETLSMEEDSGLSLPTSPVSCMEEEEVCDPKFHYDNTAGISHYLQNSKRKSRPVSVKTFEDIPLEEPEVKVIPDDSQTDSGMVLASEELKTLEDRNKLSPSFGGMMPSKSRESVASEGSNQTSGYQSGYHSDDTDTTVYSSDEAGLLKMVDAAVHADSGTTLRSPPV
Summary of the method: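 FLK-1-expressing NIH3T3 C7#3 cells, starved overnight in 0.1% FBS medium, were treated with compounds at a 1:200 final dilution (0.5% DMSO) for 2 h at 37 °C, with VEGF stimulation. FLK-1 kinase activity was read by ELISA on anti-rabbit IgG plates using affinity-purified anti-FLK-1 antiserum.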

MET = MET biochemical kinase assay; design: species or system human; concentration or dose not given beside the values
Summary of the method: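 Plates coated with anti-rabbit Fc bind a rabbit anti-MET antibody that captures receptor from cell lysates; unbound protein is washed off before compound and ATP-containing kinase buffer go in.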

Chain of PDGF-R (P09619 33-1106, species assumed): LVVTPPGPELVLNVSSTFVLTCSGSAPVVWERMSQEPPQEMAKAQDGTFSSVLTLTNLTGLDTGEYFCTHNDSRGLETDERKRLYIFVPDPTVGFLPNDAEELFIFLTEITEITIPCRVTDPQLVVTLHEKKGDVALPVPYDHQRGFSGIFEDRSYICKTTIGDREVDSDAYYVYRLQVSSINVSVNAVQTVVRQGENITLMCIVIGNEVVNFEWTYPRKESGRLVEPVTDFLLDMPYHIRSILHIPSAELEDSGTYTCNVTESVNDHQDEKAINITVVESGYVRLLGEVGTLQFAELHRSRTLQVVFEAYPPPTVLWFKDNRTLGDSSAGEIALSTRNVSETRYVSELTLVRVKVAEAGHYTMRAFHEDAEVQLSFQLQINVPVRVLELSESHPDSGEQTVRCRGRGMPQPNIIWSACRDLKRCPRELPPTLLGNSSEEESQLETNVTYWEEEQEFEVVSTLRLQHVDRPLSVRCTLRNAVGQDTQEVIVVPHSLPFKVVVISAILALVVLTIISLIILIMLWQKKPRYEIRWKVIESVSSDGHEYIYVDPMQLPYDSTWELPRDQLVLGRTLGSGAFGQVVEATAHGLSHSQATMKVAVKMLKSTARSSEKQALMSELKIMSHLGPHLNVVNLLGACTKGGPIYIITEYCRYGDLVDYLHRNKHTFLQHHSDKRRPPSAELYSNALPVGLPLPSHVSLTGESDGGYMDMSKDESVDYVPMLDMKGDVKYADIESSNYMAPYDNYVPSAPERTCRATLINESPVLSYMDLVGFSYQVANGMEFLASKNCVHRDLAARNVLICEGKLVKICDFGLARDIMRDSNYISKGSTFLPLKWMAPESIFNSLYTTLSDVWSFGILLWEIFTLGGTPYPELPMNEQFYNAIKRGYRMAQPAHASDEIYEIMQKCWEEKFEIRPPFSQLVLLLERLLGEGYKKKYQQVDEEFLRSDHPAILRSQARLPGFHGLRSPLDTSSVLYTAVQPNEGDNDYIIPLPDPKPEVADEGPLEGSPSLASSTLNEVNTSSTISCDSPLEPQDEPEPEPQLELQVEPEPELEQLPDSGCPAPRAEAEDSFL

Structure (SMILES) | PDGF Kinase %Inhibition (PDGF-R) | Fik Kinase %Inhibition (FLK-1 receptor) | Met Kinase % Inhibition (MET)
CNS(=O)(=O)c1ccc2c(c1)C(=C1C(=O)Nc3ccccc31)C(=O)N2 [10726/D09] | 22.1% | 14.4% | 45.7%
CNS(=O)(=O)c1ccc2c(c1)C(=Cc1cc(O)c3c(c1O)CCCC3)C(=O)N2 [10726/D07] | -81.0% | -26.9% | 84.6%
O=C1Nc2ccc(S(=O)(=O)N3CCOCC3)cc2C1=Cc1ccc(Br)o1 [10726/F05] | -17.8% | 8.9% | 51.2%
O=C1Nc2c(Br)cc(Br)cc2C1=Cc1cc(O)ccc1O [10727/A10] | 18.1% | -6.4% | 95.2%
CCc1ccc(C=C2C(=O)Nc3ccc(S(=O)(=O)NC)cc32)s1 [10726/D10] | 32.2% | 14.7% | 35.3%
N#Cc1cccc(C=C2C(=O)Nc3ccc(I)cc32)c1 [10727/B08] | 14.4% | 4.0% | 90.7%
O=C1Nc2ccc(F)cc2C1=C1C(=O)Nc2ccc(S(=O)(=O)Nc3ccc(C(F)(F)F)cc3)cc21 [10726/E08] | 34.1% | 4.1% | 58.9%
CCOC(=O)c1[nH]c(C=C2C(=O)Nc3ccc(S(=O)(=O)Nc4ccc(C(F)(F)F)cc4)cc32)c(C(=O)OC)c1C [10726/E03] | 20.2% | -5.5% | 62.4%
CCN(CC)c1ccc(C=C2C(=O)Nc3ccc(I)cc32)cc1 [10727/B02] | -10.3% | 2.4% | 90.5%
COc1cccc(C=C2C(=O)Nc3c(Br)cc(Br)cc32)c1OC [10727/A11] | 10.8% | 7.4% | 16.5%
N#Cc1ccc(C=C2C(=O)Nc3ccc(I)cc32)cc1 [10727/B09] | 18.1% | 6.7% | 81.9%
O=C1Nc2ccc(CCCl)cc2C1=Cc1cc(O)c2c(c1O)CCCC2 [10726/G07] | -107.6% | -13.7% | 94.8%
O=C1Nc2ccc(I)cc2C1=Cc1cc(O)ccc1O [10727/B10] | 29.7% | 3.9% | 99.2%
O=C1Nc2ccc(CCCl)cc2C1=Cc1ccc(Br)o1 [10726/G05] | 6.2% | 14.9% | 81.1%
CNS(=O)(=O)c1ccc2c(c1)C(=Cc1cn(C)cc1C)C(=O)N2 [10726/D06] | 28.4% | 16.3% | 42.8%
CCN(CC)c1ccc(C=C2C(=O)Nc3ccc(S(=O)(=O)NC)cc32)cc1 [10727/D02] | 5.7% | 3.2% | 51.6%
O=C1Nc2ccc(F)cc2C1=C1C(=O)Nc2ccc(S(=O)(=O)N3CCOCC3)cc21 [10726/F08] | 28.4% | 15.3% | 67.3%
CCOC(=O)c1[nH]c(C=C2C(=O)Nc3ccc(CCCl)cc32)c(C(=O)OC)c1C [10726/G03] | 4.3% | 11.3% | 26.8%
CCOC(=O)c1[nH]c(C=C2C(=O)Nc3ccc(S(=O)(=O)NC)cc32)c(C(=O)OC)c1C [10726/D03] | 21.4% | 21.6% | 52.1%
Cc1cc(C=C2C(=O)Nc3ccc(CCCl)cc32)cc(C(C)(C)C)c1O [10726/G04] | 14.5% | 9.7% | 72.8%
Cc1c(Br)ccc2c1C(=Cc1coc3ccccc3c1=O)C(=O)N2 [10727/C07] | 13.0% | 15.9% | 36.7%
Cc1cn(C)cc1C=C1C(=O)Nc2ccc(CCCl)cc21 [10726/G06] | -26.6% | 7.0% | 19.9%
CCN(CC)c1ccc(C=C2C(=O)Nc3ccc(Br)c(C)c32)cc1 [10727/C02] | -12.5% | -2.0% | 73.8%
O=C1Nc2c(Br)cc(Br)cc2C1=Cc1coc2ccccc2c1=O [10727/A07] | 12.3% | -10.7% | 61.1%

Structure (SMILES) | PDGF Kinase %Inhibition (PDGF-R) | Fik Kinase %Inhibition (FLK-1 receptor) | Met Kinase % Inhibition (MET)
Cc1cc(C=C2C(=O)Nc3ccc(S(=O)(=O)N4CCOCC4)cc32)cc(C(C)(C)C)c1O [10726/F04] | 18.3% | 31.5% | 93.5%
O=C1Nc2ccc(F)cc2C1=C1C(=O)Nc2ccc(CCCl)cc21 [10726/G08] | 14.5% | 2.9% | 39.1%
COc1ccc(C=C2C(=O)Nc3ccc(CCCl)cc32)cc1 [10726/G11] | -7.7% | 9.1% | 11.8%
CNS(=O)(=O)c1ccc2c(c1)C(=Cc1ccc(Br)o1)C(=O)N2 [10726/D05] | 39.1% | 8.2% | 51.2%
COc1ccc(C=C2C(=O)Nc3ccc(Br)c(C)c32)cc1 [10726/C11] | 51.1% | -32.2% | 34.7%
Cc1c(Br)ccc2c1C(=Cc1cc(Cl)cc(Br)c1O)C(=O)N2 [10727/C04] | 23.2% | 0.2% | 81.7%
Cc1c(Br)ccc2c1C(=C1C(=O)Nc3ccc(F)cc31)C(=O)N2 [10726/C08] | 21.4% | 3.4% | 46.8%
Cc1cn(C)cc1C=C1C(=O)Nc2ccc(S(=O)(=O)Nc3ccc(C(F)(F)F)cc3)cc21 [10726/E06] | 41.7% | 6.2% | -7.4%
CNS(=O)(=O)c1ccc2c(c1)C(=Cc1ccc(OC)cc1)C(=O)N2 [10726/D11] | 30.9% | 10.5% | 9.6%
Cc1c(Br)ccc2c1C(=Cc1ccccc1Sc1ccc(Cl)cc1)C(=O)N2 [10727/C05] | 7.9% | 13.7% | 8.9%
CCc1cc(CC)c(C=C2C(=O)Nc3ccc(Br)c(C)c32)[nH]1 [10727/C03] | 11.5% | -3.2% | 11.9%
CCc1ccc(C=C2C(=O)Nc3ccc(S(=O)(=O)Nc4ccc(C(F)(F)F)cc4)cc32)s1 [10726/E10] | 37.9% | 16.5% | 41.5%
O=C1Nc2ccc(S(=O)(=O)Nc3ccc(C(F)(F)F)cc3)cc2C1=Cc1cc(O)c2c(c1O)CCCC2 [10726/E07] | -12.1% | -40.0% | 84.0%
O=C1Nc2ccc(I)cc2C1=Cc1ccccc1Sc1ccc(Cl)cc1 [10727/B05] | 9.4% | 10.5% | 83.3%
O=C1Nc2ccccc2C1=C1C(=O)Nc2ccc(S(=O)(=O)N3CCOCC3)cc21 [10726/F09] | -2.6% | 9.6% | 66.8%
CNS(=O)(=O)c1ccc2c(c1)C(=C1C(=O)Nc3ccc(F)cc31)C(=O)N2 [10726/D08] | 22.1% | 12.1% | 39.5%
O=C1Nc2ccc(I)cc2C1=Cc1coc2ccccc2c1=O [10727/B07] | 0.6% | 8.4% | 83.5%
Cc1c(Br)ccc2c1C(=C1C(=O)Nc3ccccc31)C(=O)N2 [10726/C09] | 26.5% | 12.9% | 48.5%
COc1ccc(C=C2C(=O)Nc3ccc(S(=O)(=O)N4CCOCC4)cc32)cc1 [10726/F11] | 25.2% | 13.6% | 57.6%
O=C1Nc2c(Br)cc(Br)cc2C1=Cc1cc(Cl)cc(Br)c1O [10727/A04] | 12.3% | -4.6% | 80.9%
CNS(=O)(=O)c1ccc2c(c1)C(=Cc1cc(C)c(O)c(C(C)(C)C)c1)C(=O)N2 [10726/D04] | 34.1% | 7.8% | 62.9%
COc1cccc(C=C2C(=O)Nc3ccc(I)cc32)c1OC [10727/B11] | 15.9% | 16.8% | 69.8%
COc1cccc(C=C2C(=O)Nc3ccc(Br)c(C)c32)c1OC [10727/C11] | 22.4% | -25.6% | 14.5%
Cc1c(Br)ccc2c1C(=Cc1cccc(C#N)c1)C(=O)N2 [10727/C08] | 23.2% | 4.9% | 47.8%
